Source: patent publication US9139532B2, “Pyrazolyl guanidine F1F0-atpase inhibitors and therapeutic uses thereof” (Lycera Corporation, priority 2010, dated 2015)
Where two headings read alike, the source gives them in different places.

Legend:
F1F0-ATPase = biological target: T1, F1F0-ATPase (Bos taurus, UniProt P13621); test: Inhibition of F1F0-ATPase activity in synthesizing ATP; format: biochemical; settings: inhibition of ATP synthesis by F1F0-ATPase; read-out: ATP Syn IC50
T1 construct: from tissue

Ramos cells = test: Cytotoxicity in Ramos cells; format: cell-based; settings: cytotoxicity in Ramos cells, read-out: Ramos Cell EC50

| Compound | IC50 (F1F0-ATPase) | EC50 (Ramos cells) | EC50 (Ramos cells; Homo sapiens) |
| --- | --- | --- | --- |
| O=C(N=C(Nc1cc(-c2ccc(F)cc2)n[nH]1)NC1CCOCC1)c1ccc(C(F)(F)F)cc1 [Compound A-465] | > 10 µM |  | > 10 µM |
| CC(C)N/C(=N/C(=O)c1ccc(Cl)cc1)Nc1cc(-c2cc(F)cc(F)c2)n[nH]1 [Compound A-230] | < 10 µM | < 10 µM |  |
| O=C(/N=C(\Nc1cc(-c2ccccc2)[nH]n1)NC1CCOCC1)c1ccc(Cl)c(F)c1 [Compound A-140] | > 10 µM | > 10 µM |  |
| O=C(/N=C(/NCC1CCCCO1)Nc1cc(-c2ccc(F)cc2)n[nH]1)c1ccc(F)cc1 (stereo not shown) [Compound A-208] | > 10 µM | > 10 µM |  |
| O=C(/N=C(/NCc1ccc(F)cc1Cl)Nc1cc(-c2ccc(F)cc2)n[nH]1)c1cccc(F)c1 [Compound A-457] | < 10 µM | < 10 µM |  |
| O=C(/N=C(/Nc1cc(C(F)(F)F)n[nH]1)NC1CCS(=O)(=O)C1)c1ccc(Cl)cc1 (stereo not shown) [Compound A-112] | < 10 µM |  | > 10 µM |
| O=C(/N=C(\Nc1cc(-c2ccc(Cl)cc2)n[nH]1)NC1CCC1)c1ccc(F)cc1 [Compound A-251] | < 10 µM | < 10 µM |  |
| O=C(/N=C(/NCc1cccc(C(F)(F)F)c1)Nc1cc(C(F)(F)F)n[nH]1)c1ccc(Cl)cc1 [Compound A-10] | < 10 µM |  | < 10 µM |
| CC(C)NC(=NC(=O)c1ccc(C(F)(F)F)cc1)Nc1cc(-c2cc(F)cc(F)c2)n[nH]1 [Compound A-296] | < 10 µM |  | < 10 µM |
| CC1(CNC(=NC(=O)c2ccc(Cl)cc2)Nc2cc(-c3cc(F)cc(F)c3)n[nH]2)CCCO1 (stereo not shown) [Compound A-212] | < 10 µM |  | < 10 µM |
| O=C(N=C(Nc1cc(-c2ccc(F)cc2)n[nH]1)NC1CCCC1)c1ccc(F)cc1 [Compound A-521] | < 10 µM |  | < 10 µM |
| Cc1ccc(-c2cc(N/C(=N\C(=O)c3ccc(F)c(F)c3)Nc3ccc(F)cc3Cl)[nH]n2)cc1F [Compound A-318] | > 10 µM | < 10 µM |  |
| CC(N/C(=N/C(=O)c1ccc(C(F)(F)F)cc1)Nc1cc(C(F)(F)F)[nH]n1)c1ccccc1Cl (stereo not shown) [Compound A-22] | < 10 µM |  | < 10 µM |
| CCOC(C)CN/C(=N/C(=O)c1ccc(Cl)c(F)c1)Nc1cc(-c2ccc(F)cc2)n[nH]1 (stereo not shown) [Compound A-213] | < 10 µM | < 10 µM |  |
| CC(C)N/C(=N/C(=O)c1ccc(F)c(F)c1)Nc1cc(-c2cc(F)cc(Cl)c2)n[nH]1 [Compound A-286] | < 10 µM | < 10 µM |  |
| O=C(N=C(Nc1cc(-c2ccc(F)cc2)[nH]n1)NC1CCOC1)c1ccc(F)cc1 (stereo not shown) [Compound A-511] | < 10 µM | < 10 µM |  |
| O=C(/N=C(\Nc1cc(C(F)(F)F)n[nH]1)NC1CCOCC1)c1ccc(C(F)(F)F)cc1 [Compound A-95] | < 10 µM |  | < 10 µM |
| Cc1cc(C(=O)/N=C(\Nc2cc(-c3ccc(F)cc3)n[nH]2)NC(C)(C)C)ccn1 [Compound A-341] | < 10 µM | < 10 µM |  |
| Cc1ccc(-c2cc(N/C(=N\C(=O)c3ccc(C(F)(F)F)cc3)NC(C)C(C)C)[nH]n2)cc1F (stereo not shown) [Compound A-333] | < 10 µM | > 10 µM |  |
| CC(C)N/C(=N/C(=O)c1ccc(F)c(F)c1)Nc1cc(-c2cc(F)cc(F)c2)n[nH]1 [Compound A-366] | < 10 µM | < 10 µM |  |
| Cc1ccc(-c2cc(N/C(=N\C(=O)c3ccc(C(F)(F)F)cc3)NCC(C)C)[nH]n2)cc1F [Compound A-332] | < 10 µM | > 10 µM |  |
| O=C(/N=C(/NCc1ccc(F)cc1Cl)Nc1cc(C(F)(F)F)[nH]n1)c1ccc(C(F)(F)F)cc1 [Compound A-18] | < 10 µM |  | < 10 µM |
| CC(N/C(=N/C(=O)c1ccc(F)cc1)Nc1cc(-c2ccc(F)cc2)n[nH]1)C1CCCO1 (stereo not shown) [Compound A-207] | > 10 µM | > 10 µM |  |
| Cc1cc(NC(=NC(=O)c2ccc(Cl)c(F)c2)NC(C)(C)C)[nH]n1 [Compound A-181] | < 10 µM |  | < 10 µM |
| CC1(NC(=NC(=O)c2ccc(F)c(F)c2)Nc2cc(-c3cc(F)cc(Cl)c3)n[nH]2)CCCC1 [Compound A-288] | < 10 µM |  | < 10 µM |
| CC(C)(C)N/C(=N/C(=O)c1ccc(Cl)cc1)Nc1cc(C(F)(F)F)[nH]n1 [Compound A-4] | < 10 µM |  | < 10 µM |
| CC(C)(C)NC(=NC(=O)c1cccc(C#N)c1)Nc1cc(-c2ccc(F)cc2)n[nH]1 [Compound A-527] | < 10 µM |  | < 10 µM |
| Cc1ccc(C(=O)/N=C(\Nc2cc(C(F)(F)F)[nH]n2)NC2CCCC2)cc1F [Compound A-546] | < 10 µM | < 10 µM |  |
| CC(C)(C)NC(=NC(=O)c1ccnc(N)c1)Nc1cc(-c2ccc(F)cc2)[nH]n1 [Compound A-486] | < 10 µM |  | < 10 µM |
| CC(C)NC(=NC(=O)c1cccc(C#N)c1)Nc1cc(-c2ccc(Cl)cc2)n[nH]1 [Compound A-305] | < 10 µM |  | < 10 µM |

Continued, in another order:

| IC50 (F1F0-ATPase) | Compound | EC50 (Ramos cells) | EC50 (Ramos cells; Homo sapiens) |
| --- | --- | --- | --- |
| < 10 µM | CC(C)OCCN/C(=N/C(=O)c1ccc(F)cc1)Nc1cc(-c2ccc(F)cc2)n[nH]1 [Compound A-271] | < 10 µM |  |
| < 10 µM | Cc1cc(N/C(=N\C(=O)c2ccc(C(F)(F)F)cc2)NCCC(F)(F)F)n[nH]1 [Compound A-183] | < 10 µM |  |
| < 10 µM | CC(C)(C)CN/C(=N/C(=O)c1ccc(Cl)cc1)Nc1cc(C(F)F)[nH]n1 [Compound A-69] |  | < 10 µM |
| < 10 µM | CC(C)CN/C(=N/C(=O)c1cccc([S+](C)[O-])c1)Nc1cc(-c2ccc(F)cc2)n[nH]1 (stereo not shown) [Compound A-576] | < 10 µM |  |
| < 10 µM | CC1(CN/C(=N/C(=O)c2ccc(F)c(F)c2)Nc2cc(-c3ccc(F)cc3)n[nH]2)COC1 [Compound A-200] | > 10 µM |  |
| < 10 µM | COCC(C)N/C(=N/C(=O)c1ccc(F)c(F)c1)Nc1cc(C(F)(F)F)n[nH]1 (stereo not shown) [Compound A-106] |  | < 10 µM |
| < 10 µM | CC(C)(C)N/C(=N/C(=O)c1ccc(C(F)(F)F)cc1)Nc1cc(C(F)F)[nH]n1 [Compound A-53] |  | < 10 µM |
| < 10 µM | CCOCCCN/C(=N/C(=O)c1ccnc(CC)c1)Nc1cc(-c2ccc(F)cc2)[nH]n1 [Compound A-175] | > 10 µM |  |
| < 10 µM | COc1ccc(-c2cc(N/C(=N\C(=O)c3ccc(C(F)(F)F)cc3)Nc3cc(F)cc(Cl)c3)[nH]n2)cc1 [Compound A-481] | > 10 µM |  |
| < 10 µM | O=C(/N=C(\Nc1cc(C(F)(F)F)n[nH]1)NC1CCCOC1)c1ccc(C(F)(F)F)cc1 (stereo not shown) [Compound A-96] |  | < 10 µM |
| < 10 µM | N#Cc1cccc(C(=O)/N=C(\Nc2cc(-c3ccc(F)cc3)[nH]n2)N[C@@H]2CCOC2)c1 [Compound A-510] | < 10 µM |  |
| < 10 µM | O=C(/N=C(/NCC1CCO1)Nc1cc(-c2ccc(F)cc2)n[nH]1)c1ccc(F)c(F)c1 (stereo not shown) [Compound A-266] | < 10 µM |  |
| < 10 µM | CC(C)N/C(=N/C(=O)c1cccc(F)c1)Nc1cc(-c2ccc(Cl)cc2)n[nH]1 [Compound A-386] | < 10 µM |  |
| < 10 µM | CC(C)CNC(=NC(=O)c1cccc(C#N)c1)Nc1cc(-c2ccc(Cl)cc2)n[nH]1 [Compound A-303] |  | < 10 µM |
| < 10 µM | O=C(/N=C(/NCc1ccc(F)cc1Cl)Nc1cc(-c2ccc(Cl)cc2)n[nH]1)c1ccc(F)c(F)c1 [Compound A-478] | < 10 µM |  |
| < 10 µM | Cc1ccc(-c2cc(N/C(=N\C(=O)c3ccc(F)c(F)c3)NC(C)C(C)C)[nH]n2)cc1F (stereo not shown) [Compound A-324] | < 10 µM |  |
| < 10 µM | CCC(C)NC(=NC(=O)c1ccc(Cl)c(F)c1)Nc1cc(-c2cc(F)cc(F)c2)n[nH]1 (stereo not shown) [Compound A-362] |  | < 10 µM |
| < 10 µM | Cc1cc(C(=O)N=C(Nc2cc(-c3ccc(F)cc3)n[nH]2)NC(C)(C)C)ccc1F [Compound A-556] |  | < 10 µM |
| < 10 µM | COCC(C)NC(=NC(=O)c1cccc(F)c1)Nc1cc(-c2ccc(Cl)cc2)n[nH]1 (stereo not shown) [Compound A-384] | < 10 µM |  |
| < 10 µM | CC(N/C(=N/C(=O)c1ccc(F)c(F)c1)Nc1cc(C(F)(F)F)[nH]n1)c1ccc(Cl)cc1 (stereo not shown) [Compound A-29] |  | < 10 µM |
| < 10 µM | O=C(/N=C(/NCC(F)(F)F)Nc1cc(C(F)(F)F)[nH]n1)c1ccc(C(F)(F)F)cc1 [Compound A-1] |  | < 10 µM |
| < 10 µM | N#Cc1cccc(C(=O)/N=C(\Nc2cc(-c3ccc(F)cc3)[nH]n2)NC2CCCC2)c1 [Compound A-520] | < 10 µM |  |
| < 10 µM | O=C(/N=C(/NCc1ccccc1C(F)(F)F)Nc1cc(C(F)(F)F)n[nH]1)c1ccc(Cl)cc1 [Compound A-9] |  | < 10 µM |
